Experimental data reported in patent US8361988B2, “Nucleoside and nucleotide analogues with quaternary carbon centers and methods of use” (Institut de Recherches Cliniques de Montreal, priority 2007, dated 2013).

Columns and labels:
[1] = MTT cell proliferation assay, PFSK-1; assay type: cell-based; conditions: human, PFSK-1 cells, concentration causing 50% cell death of initial cell count over 24 hours, 1% DMSO
Procedure: (§1) The antitumor activities of the compounds of the invention were evaluated by a cellular proliferation assay. […] The cleavage reaction form a purple formazan crystals which is largely impermeable to cell membranes resulting in its accumulation within healthy cells. Solubilisation of the cells by addition of a detergent liberates and solubilizes the formazan crystals. The number of surviving cells is directly proportional to the level of the formazan product created. The color can then be quantified spectrophotometrically. The production of purple formazan in cells treated with a compound is measured relative to the production in control cells, and dose-response curves can be generated. This assay measures the cell proliferation rate and conversely, when metabolic events lead to apoptosis or necrosis, the reduction in cell viability, thus also allowing the evaluation of the cytotoxicity of the analogues synthesized in the laboratory.
(§2) For Tables 3 and 4, the assays were performed with 1% DMSO. The abbreviation “n.d.” means “not determined.” The values EC50, CC50, and SI have the following definitions.
(§3) Cell growth equals total cell count without any inhibitor after 72 hours minus initial cell count.
(§4) SI: Selectivity Index is the ratio CC50/EC50.

PFSK-1 = experiment: MTT cell proliferation assay, PFSK-1; assay type: cell-based; conditions: Homo sapiens, PFSK-1, 72 h, concentration reducing cell growth by 50% after 72 hours, 1% DMSO
Procedure: as §1, §2, §3, §4

[2] = MTT cell proliferation assay, ZR-75-1; assay type: cell-based; conditions: human, ZR-75-1 cells, concentration causing 50% cell death of initial cell count over 24 hours, 1% DMSO
Procedure: (§5) The antitumor activities of the compounds of the invention were evaluated by a cellular proliferation assay. The MTT [3-(4,5-dimethylthiazol-2-yl)-2,5-diphenyltetrazolium bromide] cell proliferation assay, first described by Mosmann (Mosmann T., “Rapid colorimetric assay for cellular growth and survival: application to proliferation and cytotoxicity assays,” J. Immunol. Methods 1983 Dec. 16; 65(1-2):55-63, and incorporated by reference in its entirety) is based on the ability of active mitochondrial reductase enzymes from viable cells to cleave the tetrazolium rings of the pale yellow MTT. The cleavage reaction form a purple formazan crystals which is largely impermeable to cell membranes resulting in its accumulation within healthy cells. Solubilisation of the cells by addition of a detergent liberates and solubilizes the formazan crystals. The number of surviving cells is directly proportional to the level of the formazan product created. The color can then be quantified spectrophotometrically. The production of purple formazan in cells treated with a compound is measured relative to the production in control cells, and dose-response curves can be generated. This assay measures the cell proliferation rate and conversely, when metabolic events lead to apoptosis or necrosis, the reduction in cell viability, thus also allowing the evaluation of the cytotoxicity of the analogues synthesized in the laboratory.
as §2
(§6) Cell growth equals total cell count without any inhibitor after 72 hours minus initial cell count. Total cell counts after 72 hrs of growth range from 230 to 346% of initial cell counts depending on the cell line.
(§7) Total cell counts after 24 hrs of growth range from 103 to 109% of initial cell counts depending on the cell line.
as §4

ZR-75-1 = experiment: MTT cell proliferation assay, ZR-75-1; assay type: cell-based; conditions: Homo sapiens, ZR-75-1, 72 h, concentration reducing cell growth by 50% after 72 hours, 1% DMSO
Procedure: as §5, §2, §6, §7, §4

[3] = molecular target: T1, Drosophila melanogaster dNK (Drosophila melanogaster, UniProt Q9XZT6); experiment: Phosphorylation assay (spectrophotometric coupled-enzyme), D. melanogaster dNK; assay type: biochemical; conditions: substrate at 100 μM, 37° C., 1 mM ATP, triplicate
T1 sequence (Q9XZT6 1-250): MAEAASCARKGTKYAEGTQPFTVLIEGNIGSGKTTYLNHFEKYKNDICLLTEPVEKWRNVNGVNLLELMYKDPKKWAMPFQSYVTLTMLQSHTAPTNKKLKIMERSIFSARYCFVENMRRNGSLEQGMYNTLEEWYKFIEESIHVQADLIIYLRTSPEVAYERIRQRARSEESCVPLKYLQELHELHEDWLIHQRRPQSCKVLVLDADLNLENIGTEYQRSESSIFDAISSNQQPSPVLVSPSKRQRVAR
Procedure: Compounds of the invention were also tested in a phosphorylation assay using three deoxynucleoside kinases. […] The compounds were at substrate concentration of 100 μM.
Kinetic assay. […] Briefly, the individual nucleosides at 100 μM were prepared in reaction buffer containing 50 mM Tris-HCl (pH 7.5), 0.1 M KCl, 5 mM MgCl2, 1 mM DTT, 1 mM ATP, 0.21 mM phosphoenolpyruvate, 0.18 mM NADH, and 2 units/ml pyruvate kinase and 2 units/ml lactate dehydrogenase (Roche Biochemicals, Indianapolis, Ind.). Assays were performed at 37° C. by measuring the absorbance change at 340 nm. The enzyme amount was adjusted to limit NADH turnover to 10% over the time of the experiment. All experiments were performed in triplicate.

[4] = molecular target: Thermotoga maritima thymidine kinase (Thermotoga maritima, UniProt Q9WYN2); experiment: Phosphorylation assay (spectrophotometric coupled-enzyme), T. maritima TK; assay type: biochemical; conditions: substrate at 100 μM, 37° C., 1 mM ATP, triplicate
Procedure: Compounds of the invention were also tested in a phosphorylation assay using three deoxynucleoside kinases. The kinases include human dCK, which is responsible for the activation of numerous nucleoside analog prodrugs; Drosophila melanogaster dNK, which is the fastest known kinases with the broadest substrate specificity profile; and Thermotoga maritima thymidine kinase, which is a good surrogate for human thymidine kinase 1, a member of the distinct type II kinase subfamily. The compounds were at substrate concentration of 100 μM.
Kinetic assay. Substrate phosphorylation was determined using a spectrophotometric coupled-enzyme assay (Munch-Petersen et al. (2000) J. Biol. Chem. vol. 275p. 66′73-66′79; Schelling et al. (2001) Anal. Biochem vol. 295 p. 82-8′7). Briefly, the individual nucleosides at 100 μM were prepared in reaction buffer containing 50 mM Tris-HCl (pH 7.5), 0.1 M KCl, 5 mM MgCl2, 1 mM DTT, 1 mM ATP, 0.21 mM phosphoenolpyruvate, 0.18 mM NADH, and 2 units/ml pyruvate kinase and 2 units/ml lactate dehydrogenase (Roche Biochemicals, Indianapolis, Ind.). Assays were performed at 37° C. by measuring the absorbance change at 340 nm. The enzyme amount was adjusted to limit NADH turnover to 10% over the time of the experiment. All experiments were performed in triplicate.

in vitro [5] = conditions: human, NCI H1395 cells
in vitro [6] = conditions: human, NCI H2052 cells
in vitro [7] = conditions: human, MOLT-4 cells

Thermotoga maritima thymidine kinase, sequence (Q9WYN2 whole entry): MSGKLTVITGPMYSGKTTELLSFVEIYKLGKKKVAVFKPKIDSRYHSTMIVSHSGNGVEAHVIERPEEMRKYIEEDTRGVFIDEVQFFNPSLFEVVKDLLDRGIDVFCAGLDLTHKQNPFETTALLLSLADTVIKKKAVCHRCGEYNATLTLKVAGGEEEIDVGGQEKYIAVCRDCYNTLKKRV

SMILES	CC50 at 24 h [1]	EC50 (PFSK-1)	CC50 at 24 h [2]	EC50 (ZR-75-1)	D. melanogaster dNK substrate phosphorylation [3]	T. maritima TK substrate phosphorylation [4]	CC50 at 24 h (in vitro [5])	CC50 at 24 h (in vitro [6])	D. melanogaster dNK substrate phosphorylation ([3]; listed as LCB-1004-1)	T. maritima TK substrate phosphorylation ([4]; listed as LCB-1004-1)	D. melanogaster dNK substrate phosphorylation ([3]; listed as LCB-1007-1)	D. melanogaster dNK substrate phosphorylation ([3]; listed as LCB-1023-1)	T. maritima TK substrate phosphorylation ([4]; listed as LCB-1023-1)	CC50 at 24 h (in vitro [7])
COC(=O)C1(C)C[C@@H](n2cc(C)c(=O)[nH]c2=O)O[C@@H]1CO (mixture of isomers) [LCB-1001]	> 500 µM	> 500 µM	> 500 µM	> 500 µM	<0.1 10^6 μmol/min mg	<1 10^−3 μmol/min mg	> 500 µM	295 µM	–	–	–	–	–	–
COC(=O)C1(C)C[C@@H](n2ccc(=O)[nH]c2=O)O[C@@H]1CO (mixture of isomers) [LCB-1002]	> 500 µM	> 500 µM	> 500 µM	> 500 µM	<0.1 10^6 μmol/min mg	2.2 10^−3 μmol/min mg	493 µM	423 µM	–	–	–	–	–	–
Cc1cn([C@@H]2CC(C)(CO)[C@@H](CO)O2)c(=O)[nH]c1=O (mixture of isomers) [LCB-1004-2]	–	–	–	–	3.7 10^6 μmol/min mg	<1 10^−3 μmol/min mg	–	–	–	–	–	–	–	–
Cc1cn([C@@H]2CC(C)(CO)[C@@H](CO)O2)c(=O)[nH]c1=O (mixture of isomers) [LCB-1004]	> 500 µM	> 500 µM	> 500 µM	420 µM	–	–	> 500 µM	> 500 µM	4.2 10^6 μmol/min mg	4.1 10^−3 μmol/min mg	–	–	–	–
COC(=O)C1(C)C[C@H](n2ccc(=O)[nH]c2=O)O[C@@H]1CO (mixture of isomers) [LCB-1005]	> 500 µM	> 500 µM	> 500 µM	> 500 µM	<0.1 10^6 μmol/min mg	<1 10^−3 μmol/min mg	> 500 µM	> 500 µM	–	–	–	–	–	–
CC1(CO)C[C@H](n2ccc(=O)[nH]c2=O)O[C@@H]1CO (mixture of isomers) [LCB-1006]	> 500 µM	> 500 µM	> 500 µM	> 500 µM	0.22 10^6 μmol/min mg	2.7 10^−3 μmol/min mg	> 500 µM	> 500 µM	–	–	–	–	–	–
Cc1cn([C@H]2CC(C)(CO)[C@@H](CO)O2)c(=O)[nH]c1=O (mixture of isomers) [LCB-1007-2]	–	–	–	–	0.74 10^6 μmol/min mg	2.2 10^−3 μmol/min mg	–	–	–	–	–	–	–	–
Cc1cn([C@H]2CC(C)(CO)[C@@H](CO)O2)c(=O)[nH]c1=O (mixture of isomers) [LCB-1007]	> 500 µM	> 500 µM	> 500 µM	460 µM	–	2.2 10^−3 μmol/min mg	> 500 µM	> 500 µM	–	–	0.84 10^6 μmol/min mg	–	–	–
CC1(CO)C[C@@H](n2ccc(=O)[nH]c2=O)O[C@@H]1CO (mixture of isomers) [LCB-1008]	> 500 µM	> 500 µM	> 500 µM	> 500 µM	0.36 10^6 μmol/min mg	<1 10^−3 μmol/min mg	> 500 µM	> 500 µM	–	–	–	–	–	–
COC(=O)C1(C)C[C@H](n2cc(C)c(=O)[nH]c2=O)O[C@@H]1CO (mixture of isomers) [LCB-1009-2]	–	–	–	–	3.44 10^6 μmol/min mg	4.9 10^−3 μmol/min mg	–	–	–	–	–	–	–	–
COC(=O)C1(C)CC(n2cc(C)c(=O)[nH]c2=O)OC1CO (racemic) [LCB-1010-2, (±) methyl 2-(hydroxymethyl)-3-methyl-5-(5-methyl-2,4-dioxo-3,4-dihydropyrimidin-1(2H)-yl)tetrahydrofuran-3-carboxylate]	–	–	–	–	2.13 10^6 μmol/min mg	5.6 10^−3 μmol/min mg	–	–	–	–	–	–	–	–
COC(=O)C1(C)C[C@H](n2cc(F)c(=O)[nH]c2=O)O[C@@H]1CO (mixture of isomers) [LCB-1023, 5-(5-Fluoro-2,4-dioxo-3,4-dihydro-2H-pyrimidin-1-yl)-2-hydroxymethyl-3-methyl-tetrahydro-furan-3-carhoxylic acid methyl ester]	–	–	–	–	–	–	–	–	–	–	–	0.33 10^6 μmol/min mg	2.1 10^−3 μmol/min mg	–
C[C@@]12CC(n3cc(F)c(N)nc3=O)O[C@@H]1COC2=O (mixture of isomers) [LCB-1028]	> 500 µM	> 500 µM	> 500 µM	> 500 µM	–	–	> 500 µM	> 500 µM	–	–	–	–	–	> 500 µM
C[C@@]12CC(n3ccc(N)nc3=O)O[C@@H]1COC2=O (mixture of isomers) [LCB-1029]	> 500 µM	> 500 µM	> 500 µM	> 500 µM	–	–	> 500 µM	> 500 µM	–	–	–	–	–	> 500 µM
CC1(C(N)=O)CC(n2cc(F)c(N)nc2=O)O[C@@H]1CO (mixture of isomers) [LCB-1030]	> 500 µM	> 500 µM	> 500 µM	> 500 µM	–	–	> 500 µM	> 500 µM	–	–	–	–	–	> 500 µM
Cc1cn([C@H]2CC(C)(CO)[C@@H](CO)O2)c(=O)[nH]c1=O (mixture of isomers) [LCB-1032, (±) 1-(-4,5-bis(hydroxymethyl)-4-methyltetrahydrofuran-2-yl)-5-methylpyrimidine-2,4(1H,3H)-dione]	–	–	–	–	–	–	–	–	–	–	–	–	–	> 500 µM
Cc1cn([C@H]2C[C@H](O)[C@@H](CO)O2)c(=O)[nH]c1=O [Thymidine, reference compound]	–	–	–	–	–	830 10^−3 μmol/min mg	–	–	–	–	–	–	–	–
